These compounds were tested against T1, Full length human CDC7 protein co-expressed with DBF4 (Homo sapiens, UniProt O00311) (assay: CDC7 kinase biochemical assay (ADP-Glo, PDKtide substrate)). Details: 0.1 nM CDC7/DBF4, 1 uM ATP, 10 uM PDKtide, 4 h; read-out: CDC7 ADP-Glo PDKtide IC50.
T1 construct: Full length human CDC7 protein co-expressed with DBF4; purchased SignalChem (China)
Protocol: CDC7 Kinase Biochemical Assay Protocol:
Full length human CDC7 protein co-expressed with DBF4 was purchased from SignalChem (China). CDC7 kinase activity was determined with PDKtide (SignalChem) as a substrate and by measuring ADP production using the ADP-Glo™ Kinase Assay kit (Promega) following the manufacturers instructions. The kinase reaction was performed using the following conditions: Buffer: 40 mM Tris pH 7.5, 20 mM MgCl2, 0.1 mg/ml BSA and 50 uM DTT. Final reaction mix contained 0.1 nM CDC7/DBF4, 1 uM ATP and 10 uM PDKtide. The kinase reaction time was 4 h. The ADP-Glo signal was measured using an EnVision plate reader (PerkinELmer).
Percent inhibition of CDC7 kinase activity was calculated based on the following formula: […]
SSample: the signal of compounds SHigh ctrl: the signal of high control (DMSO) SLow Ctrl: the signal of low control (positive control CDC7 inhibitor)

T1 sequence (O00311 whole entry): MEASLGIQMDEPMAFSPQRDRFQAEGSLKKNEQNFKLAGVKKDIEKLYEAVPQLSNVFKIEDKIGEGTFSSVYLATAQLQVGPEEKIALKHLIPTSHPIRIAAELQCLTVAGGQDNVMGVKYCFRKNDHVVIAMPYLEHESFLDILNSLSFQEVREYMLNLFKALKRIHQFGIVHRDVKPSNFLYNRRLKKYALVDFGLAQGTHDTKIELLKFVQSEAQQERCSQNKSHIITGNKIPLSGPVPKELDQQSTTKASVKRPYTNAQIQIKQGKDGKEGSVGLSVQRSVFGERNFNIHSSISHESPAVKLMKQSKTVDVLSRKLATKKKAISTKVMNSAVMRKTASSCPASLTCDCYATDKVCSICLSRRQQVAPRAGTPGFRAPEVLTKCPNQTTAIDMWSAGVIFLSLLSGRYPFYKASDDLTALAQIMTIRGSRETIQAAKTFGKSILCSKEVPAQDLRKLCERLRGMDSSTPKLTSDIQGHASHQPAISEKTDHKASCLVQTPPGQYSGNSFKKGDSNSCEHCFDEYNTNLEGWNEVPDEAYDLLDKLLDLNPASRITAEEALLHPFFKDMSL
T1 sequence (Q9UBU7 whole entry partner): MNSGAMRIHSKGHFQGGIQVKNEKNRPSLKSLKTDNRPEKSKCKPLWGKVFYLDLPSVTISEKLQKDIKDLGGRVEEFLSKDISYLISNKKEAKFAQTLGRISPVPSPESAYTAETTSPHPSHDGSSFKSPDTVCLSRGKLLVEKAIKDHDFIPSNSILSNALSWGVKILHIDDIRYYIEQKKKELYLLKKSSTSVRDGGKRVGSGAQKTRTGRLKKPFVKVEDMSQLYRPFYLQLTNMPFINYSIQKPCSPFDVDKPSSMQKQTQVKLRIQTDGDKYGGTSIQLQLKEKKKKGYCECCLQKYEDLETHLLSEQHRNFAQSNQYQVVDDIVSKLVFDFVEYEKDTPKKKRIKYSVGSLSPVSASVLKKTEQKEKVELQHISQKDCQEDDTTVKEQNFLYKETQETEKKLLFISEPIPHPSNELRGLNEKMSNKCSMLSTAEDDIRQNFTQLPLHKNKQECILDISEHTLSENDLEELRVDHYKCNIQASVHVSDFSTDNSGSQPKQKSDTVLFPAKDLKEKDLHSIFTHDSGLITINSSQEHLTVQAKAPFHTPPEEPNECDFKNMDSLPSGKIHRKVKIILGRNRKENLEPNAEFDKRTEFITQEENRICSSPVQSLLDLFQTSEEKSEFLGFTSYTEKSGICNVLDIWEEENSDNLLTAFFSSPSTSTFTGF

Row | SMILES | IC50
1 | O=C1NC[C@H](COCc2ccccc2)N2CCOc3c(-c4cn[nH]c4)sc1c32 [Compound 35, (R)-6-((benzyloxy)methyl)-2-(1H-pyrazol-4-yl)-4,5,7,8-tetrahydro-3-oxa-1-thia-5a,8-diazabenzo[cd]azulen-9(6H)-one] | 1 to 10 nM
2 | O=C1NC[C@H](CN2CCC2)N2CCOc3c(-c4cn[nH]c4)sc1c32 [Compound 36, (R)-6-(azetidin-1-ylmethyl)-2-(1H-pyrazol-4-yl)-4,5,7,8-tetrahydro-3-oxa-1-thia-5a,8-diazabenzo[cd]azulen-9(6H)-one] | 1 to 10 nM
3 | CNC[C@H]1CNC(=O)c2sc(-c3cn[nH]c3)c3c2N1CCO3 [Compound 37, (S)-6-((methylamino)methyl)-2-(1H-pyrazol-4-yl)-4,5,7,8-tetrahydro-3-oxa-1-thia-5a,8-diazabenzo[cd]azulen-9(6H)-one] | < 1 nM
4 | O=C1N[C@@H](CN2CCC2)CN2CCOc3c(-c4cn[nH]c4)sc1c32 [Compound 40, (S)-7-(azetidin-1-ylmethyl)-2-(1H-pyrazol-4-yl)-4,5,7,8-tetrahydro-3-oxa-1-thia-5a,8-diazabenzo[cd]azulen-9(6H)-one] | 1 to 10 nM
5 | Cc1cnn(C[C@H]2CNC(=O)c3sc(-c4cn[nH]c4)c4c3N2CCO4)c1 [Compound 42, (R)-6-((4-methyl-1H-pyrazol-1-yl)methyl)-2-(1H-pyrazol-4-yl)-4,5,7,8-tetrahydro-3-oxa-1-thia-5a,8-diazabenzo[cd]azulen-9(6H)-one] | > 10 nM
6 | Cc1ccn(C[C@H]2CN3CCOc4c(-c5cn[nH]c5)sc(c43)C(=O)N2)n1 [Compound 43, (R)-7-((3-methyl-1H-pyrazol-1-yl)methyl)-2-(1H-pyrazol-4-yl)-4,5,7,8-tetrahydro-3-oxa-1-thia-5a,8-diazabenzo[cd]azulen-9(6H)-one] | < 1 nM
7 | Cc1ccnn1C[C@H]1CN2CCOc3c(-c4cn[nH]c4)sc(c32)C(=O)N1 [Compound 44, (R)-7-((5-methyl-1H-pyrazol-1-yl)methyl)-2-(1H-pyrazol-4-yl)-4,5,7,8-tetrahydro-3-oxa-1-thia-5a,8-diazabenzo[cd]azulen-9(6H)-one] | < 1 nM
8 | Cc1cnn(C[C@H]2COc3c(-c4cn[nH]c4)sc4c3N2CCNC4=O)c1 [Compound 45, (S)-5-((4-methyl-1H-pyrazol-1-yl)methyl)-2-(1H-pyrazol-4-yl)-4,5,7,8-tetrahydro-3-oxa-1-thia-5a,8-diazabenzo[cd]azulen-9(6H)-one] | 1 to 10 nM
9 | O=C1NC[C@@H](CN2CCC2)N2CCOc3c(-c4cn[nH]c4)sc1c32 [Compound 46, (S)-6-(azetidin-1-ylmethyl)-2-(1H-pyrazol-4-yl)-4,5,7,8-tetrahydro-3-oxa-1-thia-5a,8-diazabenzo[cd]azulen-9(6H)-one] | 1 to 10 nM
10 | CNC[C@H]1CN2CCOc3c(-c4cn[nH]c4)sc(c32)C(=O)N1 [Compound 47, (S)-7-((methylamino)methyl)-2-(1H-pyrazol-4-yl)-4,5,7,8-tetrahydro-3-oxa-1-thia-5a,8-diazabenzo[cd]azulen-9(6H)-one] | < 1 nM
11 | O=C1N[C@@H](CO)CN2CCOc3c(-c4cn[nH]c4)sc1c32 [Compound 48, (R)-7-(hydroxymethyl)-2-(1H-pyrazol-4-yl)-4,5,7,8-tetrahydro-3-oxa-1-thia-5a,8-diazabenzo[cd]azulen-9(6H)-one] | < 1 nM
12 | Cn1ccc(C2CN3CCOc4c(-c5cn[nH]c5)sc(c43)C(=O)N2)n1 (centres unmarked) [Compound 52] | 1 to 10 nM
13 | COC(=O)[C@@H]1CN2C(=O)COc3c(-c4cn[nH]c4)sc(c32)C(=O)N1 [Compound 53, Methyl (S)-5,9-dioxo-2-(1H-pyrazol-4-yl)-4,5,6,7,8,9-hexahydro-3-oxa-1-thia-5a,8-diazabenzo[cd]azulene-7-carboxylate] | 1 to 10 nM
14 | COC[C@@H]1CN(C)C(=O)c2sc(-c3cn[nH]c3)c3c2N1CCO3 [Compound 56, (S)-6-(methoxymethyl)-8-methyl-2-(1H-pyrazol-4-yl)-4,5,7,8-tetrahydro-3-oxa-1-thia-5a,8-diazabenzo[cd]azulen-9(6H)-one] | 1 to 10 nM
15 | CC(=O)NC[C@@H]1COc2c(-c3cn[nH]c3)sc3c2N1CCNC3=O [Compound 57, N-[[(7R)-12-oxo-3-(1H-pyrazol-4-yl)-5-oxa-2-thia-8,11-diazatricyclo[6.4.1.0^4,13]trideca-1(13),3-dien-7-yl]methyl]acetamide] | < 1 nM
16 | O=C1NCCN2c3c1sc(-c1cn[nH]c1)c3OC[C@H]2CNC(=O)C1CCC1 [Compound 58, (R)—N-((9-oxo-2-(1H-pyrazol-4-yl)-4,5,6,7,8,9-hexahydro-3-oxa-1-thia-5a,8-diazabenzo[cd]azulen-5-yl)methyl)cyclobutanecarboxamide] | < 1 nM

Row | SMILES | IC50
17 | N#CC[C@@H]1CNC(=O)c2sc(-c3cn[nH]c3)c3c2N1CCO3 [Compound 59, (R)-2-(9-oxo-2-(1H-pyrazol-4-yl)-4,5,6,7,8,9-hexahydro-3-oxa-1-thia-5a,8-diazabenzo[cd]azulen-6-yl)acetonitrile] | < 1 nM
18 | COC(=O)C[C@@H]1CNC(=O)c2sc(-c3cn[nH]c3)c3c2N1CCO3 [Compound 60, methyl (R)-2-(9-oxo-2-(1H-pyrazol-4-yl)-4,5,6,7,8,9-hexahydro-3-oxa-1-thia-5a,8-diazabenzo[cd]azulen-6-yl)acetate] | 1 to 10 nM
19 | Cc1ccn(C[C@@H]2CNC(=O)c3sc(-c4cn[nH]c4)c4c3N2CCO4)n1 [Compound 61, (S)-6-((3-methyl-1H-pyrazol-1-yl)methyl)-2-(1H-pyrazol-4-yl)-4,5,7,8-tetrahydro-3-oxa-1-thia-5a,8-diazabenzo[cd]azulen-9(6H)-one] | < 1 nM
20 | Cc1ccnn1C[C@H]1CNC(=O)c2sc(-c3cn[nH]c3)c3c2N1CCO3 [Compound 62, (R)-6-((5-methyl-1H-pyrazol-1-yl)methyl)-2-(1H-pyrazol-4-yl)-4,5,7,8-tetrahydro-3-oxa-1-thia-5a,8-diazabenzo[cd]azulen-9(6H)-one] | > 10 nM
21 | Cc1cnn(C[C@@H]2CNC(=O)c3sc(-c4cn[nH]c4)c4c3N2CCO4)c1 [Compound 63, (S)-6-((4-methyl-1H-pyrazol-1-yl)methyl)-2-(1H-pyrazol-4-yl)-4,5,7,8-tetrahydro-3-oxa-1-thia-5a,8-diazabenzo[cd]azulen-9(6H)-one] | 1 to 10 nM
22 | O=C1NC2(CCOCC2)CN2CCOc3c(-c4cn[nH]c4)sc1c32 [Compound 64, 2-(1H-pyrazol-4-yl)-2′,3′,4,5,5′,6′-hexahydro-6H-3-oxa-1-thia-5a,8-diazaspiro[benzo[cd]azulene-7,4′-pyran]-2,2a1(9a)-dien-9(8H)-one] | < 1 nM
23 | O=C1N[C@@H](C2CCOCC2)CN2CCOc3c(-c4cn[nH]c4)sc1c32 [Compound 65, (S)-2-(1H-pyrazol-4-yl)-7-(tetrahydro-2H-pyran-4-yl)-4,5,7,8-tetrahydro-3-oxa-1-thia-5a,8-diazabenzo[cd]azulen-9(6H)-one] | < 1 nM
24 | O=C1NC[C@H](CO)N2CCCc3c(-c4cn[nH]c4)sc1c32 [Compound 87, (R)-6-(hydroxymethyl)-2-(1H-pyrazol-4-yl)-4,5,7,8-tetrahydro-3H-1-thia-5a,8-diazabenzo[cd]azulen-9(6H)-one] | < 1 nM
25 | COC[C@H]1CNC(=O)c2sc(-c3cn[nH]c3)c3c2N1CCC3 [Compound 88, (R)-6-(methoxymethyl)-2-(1H-pyrazol-4-yl)-4,5,7,8-tetrahydro-3H-1-thia-5a,8-diazabenzo[cd]azulen-9(6H)-one] | 1 to 10 nM
26 | O=C1NC[C@@H](CC2(O)CC2)N2CCCc3c(-c4cn[nH]c4)sc1c32 [Compound 89, (9R)-9-[(1-hydroxycyclopropyl)methyl]-3-(1H-pyrazol-4-yl)-2-thia-8,11-diazatricyclo [6.4.1.0^4,13]trideca-1(13),3-dien-12-one] | < 1 nM
27 | CCC(=O)C[C@@H]1CNC(=O)c2sc(-c3cn[nH]c3)c3c2N1CCC3 [Compound 90, (9R)-9-(2-oxobutyl)-3-(1H-pyrazol-4-yl)-2-thia-8,11-diazatricyclo[6.4.1.0^4,13]trideca-1(13),3-dien-12-one] | 1 to 10 nM
28 | O=C1N[C@@H](C2CCC2)[C@H](CO)N2CCOc3c(-c4cn[nH]c4)sc1c32 [Compound 92, (9R,10S)-10-cyclobutyl-9-(hydroxymethyl)-3-(1H-pyrazol-4-yl)-5-oxa-2-thia-8,11-diazatricyclo[6.4.1.0^4,13]trideca-1(13),3-dien-12-one] | < 1 nM
29 | O=C1NC[C@H](CN2CCC2)N2CCCc3c(-c4cn[nH]c4)sc1c32 [Compound 94, (R)-6-(azetidin-1-ylmethyl)-2-(1H-pyrazol-4-yl)-4,5,7,8-tetrahydro-3H-1-thia-5a,8-diazabenzo[cd]azulen-9(6H)-one] | 1 to 10 nM
30 | Cc1cnn(C[C@H]2CNC(=O)c3sc(-c4cn[nH]c4)c4c3N2CCC4)c1 [Compound 95, (R)-6-((4-methyl-1H-pyrazol-1-yl)methyl)-2-(1H-pyrazol-4-yl)-4,5,7,8-tetrahydro-3H-1-thia-5a,8-diazabenzo[cd]azulen-9(6H)-one] | 1 to 10 nM
31 | N#CC[C@@H]1CNC(=O)c2sc(-c3cn[nH]c3)c3c2N1CCC3 [Compound 97, (R)-2-(9-oxo-2-(1H-pyrazol-4-yl)-4,5,6,7,8,9-hexahydro-3H-1-thia-5a,8-diazabenzo[cd]azulen-6-yl)acetonitrile] | < 1 nM
32 | C[C@H]1CN2CC(F)(F)Cc3c(-c4cn[nH]c4)sc(c32)C(=O)N1 [Compound 101, (10S)-6,6-difluoro-10-methyl-3-(1H-pyrazol-4-yl)-2-thia-8,11-diazatricyclo[6.4.1.0^4,13]trideca-1(13),3-dien-12-one] | < 1 nM

— US20230101747A1 (Schrödinger, Inc., priority 2019, published 2023)
